A value given as a limit tells only on which side of the number the result lay.

Chain of Wild type FGFR2 (P21802 22-821): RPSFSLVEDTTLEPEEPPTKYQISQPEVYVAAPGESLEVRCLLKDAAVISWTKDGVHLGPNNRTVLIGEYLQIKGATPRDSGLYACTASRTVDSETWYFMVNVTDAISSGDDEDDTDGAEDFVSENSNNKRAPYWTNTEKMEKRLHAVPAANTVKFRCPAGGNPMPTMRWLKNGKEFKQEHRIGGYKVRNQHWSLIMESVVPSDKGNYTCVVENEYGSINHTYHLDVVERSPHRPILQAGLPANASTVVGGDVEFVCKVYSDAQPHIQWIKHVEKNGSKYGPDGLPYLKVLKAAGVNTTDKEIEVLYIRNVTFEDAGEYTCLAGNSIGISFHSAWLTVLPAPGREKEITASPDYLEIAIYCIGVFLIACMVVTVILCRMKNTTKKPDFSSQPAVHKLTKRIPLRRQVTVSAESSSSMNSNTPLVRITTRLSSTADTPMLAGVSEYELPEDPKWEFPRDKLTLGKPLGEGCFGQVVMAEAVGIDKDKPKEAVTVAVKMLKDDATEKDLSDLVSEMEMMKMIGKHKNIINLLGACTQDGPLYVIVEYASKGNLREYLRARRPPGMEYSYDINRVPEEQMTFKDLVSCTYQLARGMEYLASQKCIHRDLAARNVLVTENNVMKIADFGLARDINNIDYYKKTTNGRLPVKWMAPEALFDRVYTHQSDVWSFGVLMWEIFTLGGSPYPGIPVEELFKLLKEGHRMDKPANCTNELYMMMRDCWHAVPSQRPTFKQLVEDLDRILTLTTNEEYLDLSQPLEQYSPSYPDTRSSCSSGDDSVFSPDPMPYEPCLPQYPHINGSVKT

The first assay has as its target Wild type FGFR2 (Homo sapiens (Human), UniProt P21802). Nature of the assay: FGFR2 kinase assay (fluorescence-based microfluidic mobility shift assay). It counts as biochemical.
Conditions: not given
In general, IC50 refers to the midpoint of a concentration-inhibition curve. On to `C=CC(=O)N1C[C@@H](n2nc(C#Cc3cc4nccc(C)c4cc3F)c(C(N)=O)c2NC)C[C@@H]1COC` [Example 274, 3-[2-(6-Fluoro-4-methylquinolin-7-yl)ethynyl]-1-[(3S,5R)-5-(methoxymethyl)-1-(prop-2-enoyl)pyrrolidin-3-yl]-5-(methylamino)pyrazole-4-carboxamide], for which the IC50 is under 100 nM.

Take `C=CC(=O)N1C[C@@H](n2nc(C#Cc3cc4nccc(C)c4cc3Cl)c(C(N)=O)c2NC)C[C@@H]1COC` [Example 281, 3-[2-(6-chloro-4-methylquinolin-7-yl)ethynyl]-1-[(3S,5R)-5-(methoxymethyl)-1-(prop-2-enoyl)pyrrolidin-3-yl]-5-(methylamino)pyrazole-4-carboxamide]: the IC50 was under 100 nM.

Still in this assay, the particulars now being: wild type FGFR2 0.06 nM, 100 μM ATP, 80 minutes at room temperature; class symbols.
Regarding `C=CC(=O)N1C[C@@H](n2nc(C#Cc3cc4nncc(C)c4cc3Cl)c(C(N)=O)c2NC)C[C@@H]1COC` [Example 268, 1-((3S,5R)-1-acryloyl-5-(methoxymethyl)pyrrolidin-3-yl)-3-((6-chloro-4-methylcinnolin-7-yl)ethynyl)-5-(methylamino)-1H-pyrazole-4-carboxamide], the IC50 was at most 100 nM.

Take `C=CC(=O)N1C[C@@H](n2nc(C#Cc3cc(OC)c4c(C#N)cnn4c3)c(C(N)=O)c2NC)C[C@@H]1COC` [Example 270, 1-((3S,5R)-1-acryloyl-5-(methoxymethyl)pyrrolidin-3-yl)-3-((3-cyano-4-methoxypyrazolo[1,5-a]pyridin-6-yl)ethynyl)-5-(methylamino)-1H-pyrazole-4-carboxamide]: the 50% inhibitory concentration (IC50) was at most 100 nM.

Consider `C=CC(=O)N1C[C@@H](n2nc(C#Cc3cc4ncc(C(F)F)cc4cc3F)c(C(N)=O)c2NC)C[C@@H]1COC` [Example 273, 3-{2-[3-(Difluoromethyl)-6-fluoroquinolin-7-yl]ethynyl}-1-[(3S,5R)-5-(methoxymethyl)-1-(prop-2-enoyl)pyrrolidin-3-yl]-5-(methylamino)pyrazole-4-carboxamide], for which the IC50 is at most 100 nM.

In the case of `C=CC(=O)N1C[C@@H](n2nc(C#Cc3cccc4c3cnn4C)c(C(N)=O)c2NC)C[C@@H]1COC` [Example 275, 1-((3S,5R)-1-Acryloyl-5-(methoxymethyl)pyrrolidin-3-yl)-3-((1-methyl-1H-indazol-4-yl)ethynyl)-5-(methylamino)-1H-pyrazole-4-carboxamide], the IC50 was at most 100 nM.

Turning to `C=CC(=O)N1C[C@@H](n2nc(C#Cc3cccc4c3cnn4C3CC3)c(C(N)=O)c2NC)C[C@@H]1COC` [Example 276, 3-[2-(1-Cyclopropylindazol-4-yl)ethynyl]-1-[(3S,5R)-5-(methoxymethyl)-1-(prop-2-enoyl)pyrrolidin-3-yl]-5-(methylamino)pyrazole-4-carboxamide], the IC50 was at most 100 nM.

In the case of `C=CC(=O)N1C[C@@H](n2nc(C#Cc3cccn4cncc34)c(C(N)=O)c2NC)C[C@@H]1COC` [Example 277, 3-(2-{Imidazo[1,5-a]pyridin-8-yl}ethynyl)-1-[(3S,5R)-5-(methoxymethyl)-1-(prop-2-enoyl)pyrrolidin-3-yl]-5-(methylamino)pyrazole-4-carboxamide], the IC50 is at most 100 nM.

Regarding `C=CC(=O)N1C[C@@H](n2nc(C#Cc3cccc4cncn34)c(C(N)=O)c2NC)C[C@@H]1COC` [Example 278, 3-(2-{Imidazo[1,5-a]pyridin-5-yl}ethynyl)-1-[(3S,5R)-5-(methoxymethyl)-1-(prop-2-enoyl)pyrrolidin-3-yl]-5-(methylamino)pyrazole-4-carboxamide], the IC50 was at most 100 nM.

As to `C=CC(=O)N1C[C@@H](n2nc(C#Cc3cc4ncc(C5CC5)n4cc3F)c(C(N)=O)c2NC)C[C@@H]1COC` [Example 283, 3-(2-{3-Cyclopropyl-6-fluoroimidazo[1,2-a]pyridin-7-yl}ethynyl)-1-[(3S,5R)-5-(methoxymethyl)-1-(prop-2-enoyl)pyrrolidin-3-yl]-5-(methylamino)pyrazole-4-carboxamide], the IC50 was at most 100 nM.

`C=CC(=O)N1C[C@@H](n2nc(C#Cc3cc(OC)c4c(C5CC5)cnn4c3)c(C(N)=O)c2NC)C[C@@H]1COC` [Example 284, 3-(2-{3-Cyclopropyl-4-methoxypyrazolo[1,5-a]pyridin-6-yl}ethynyl)-1-[(3S,5R)-5-(methoxymethyl)-1-(prop-2-enoyl)pyrrolidin-3-yl]-5-(methylamino)pyrazole-4-carboxamide]: the IC50 fell in the range of 100 to 1000 nM.

Take `C=CC(=O)N1C[C@@H](n2nc(C#Cc3cc4nc5n(c4cc3Cl)CCC5)c(C(N)=O)c2NC)C[C@@H]1COC` [Example 285, 1-((3S,5R)-1-Acryloyl-5-(methoxymethyl)pyrrolidin-3-yl)-3-((7-chloro-2,3-dihydro-1H-benzo[d]pyrrolo[1,2-a]imidazol-6-yl)ethynyl)-5-(methylamino)-1H-pyrazole-4-carboxamide]: the IC50 is at most 100 nM.

In the case of `C=CC(=O)N1C[C@@H](n2nc(C#Cc3c(F)ccc4c3cnn4C3CC3)c(C(N)=O)c2NC)C[C@@H]1COC` [Example 287, 1-((3S,5R)-1-Acryloyl-5-(methoxymethyl)pyrrolidin-3-yl)-3-((1-cyclopropyl-5-fluoro-1H-indazol-4-yl)ethynyl)-5-(methylamino)-1H-pyrazole-4-carboxamide], the IC50 is at most 100 nM.

For `C=CC(=O)N1C[C@@H](n2nc(C#Cc3cc4ncc(Cl)n4cc3F)c(C(N)=O)c2NC)C[C@@H]1COC` [Example 290, 3-(2-{3-Chloro-6-fluoroimidazo[1,2-a]pyridin-7-yl}ethynyl)-1-[(3S,5R)-5-(methoxymethyl)-1-(prop-2-enoyl)pyrrolidin-3-yl]-5-(methylamino)pyrazole-4-carboxamide], the IC50 is at most 100 nM.
